Legend:
Format in all cases: in vivo
Venturia inaequalis = test: Foliar fungal disease test on plants: Venturia inaequalis (Vi); conditions: 100 ppm active ingredient foliar spray plus root drench (approx. 40 ppm a.i. in dry soil), one or two days before inoculation
Protocol: (§1) The compounds were tested against a variety of foliar fungal diseases of plants. The technique employed was as follows.
(§2) The plants were grown in John Innes Potting Compost (No.1 or 2) in 4 cm diameter minipots. The test compounds were formulated either by bead milling with aqueous Dispersol T or as a solution in acetone or acetone/ethanol which was diluted to the required concentration immediately before use. For the foliage diseases, the formulations (100 ppm active ingredient except where otherwise indicated) were sprayed onto the foliage and applied to the roots of the plants in the soil. The sprays were applied to maximum retention and the root drenches to a final concentration equivalent to approximately 40 ppm a.i. in dry soil. Tween 20, to give a final concentration of 0.05%, was added when the sprays were applied to cereals.
(§3) For most of the tests the compound was applied to the soil (roots) and to the foliage (by spraying) one or two days before the plant was inoculated with the disease. An exception was the test on Erysiphe graminis in which the plants were inoculated 24 hours before treatment. Foliar pathogens were applied by spray as spore suspensions onto the leaves of test plants. After inoculation, the plants were put into an appropriate environment to allow infection to proceed and then incubated until the disease was ready for assessment. The period between inoculation and assessment varied from four to fourteen days according to the disease and environment.
(§4) The disease control vas recorded by the following grading:
(§5) 3=trace-5% of disease on untreated plants
(§6) 2=6-25% of disease on untreated plants
(§7) 1=26-59% of disease on untreated plants
(§8) 0=60-100% of disease on untreated plants

Erysiphe graminis hordei = test: Foliar fungal disease test on plants: Erysiphe graminis hordei (Egh); conditions: 100 ppm active ingredient foliar spray plus root drench (approx. 40 ppm a.i. in dry soil); plants inoculated 24 hours before treatment
Protocol: as §1, §2, §3, §4, §5, §6, §7, §8
Egh Erysiphe graminis hordei

Puccinia recondita = test: Foliar fungal disease test on plants: Puccinia recondita (Pr); conditions: 100 ppm active ingredient foliar spray plus root drench (approx. 40 ppm a.i. in dry soil), one or two days before inoculation
Protocol: as §1, §2, §3, §4, §5, §6, §7, §8

Plasmopara viticola = test: Foliar fungal disease test on plants: Plasmopara viticola (Pv); conditions: 100 ppm active ingredient foliar spray plus root drench (approx. 40 ppm a.i. in dry soil), one or two days before inoculation
Protocol: as §1, §2, §3, §4, §5, §6, §7, §8

Pyricularia oryzae = conditions: 100 ppm active ingredient foliar spray plus root drench (approx. 40 ppm a.i. in dry soil), one or two days before inoculation
[1] = test system: Phytophthora infestans lycopersici; conditions: 100 ppm active ingredient foliar spray plus root drench (approx. 40 ppm a.i. in dry soil), one or two days before inoculation

Structure (SMILES) | disease control grading, Vi (Venturia inaegualis) (Venturia inaequalis) | disease control grading, Egh (Erysiphe graminis hordei) (Erysiphe graminis hordei) | disease control grading, Pr (Puccinia recondita) (Puccinia recondita) | disease control grading, Pv (Plasmopara viticola) (Plasmopara viticola) | disease control grading, Po (Pyricularia oryzae) (Pyricularia oryzae) | disease control grading, Pil (Phytophthora infestans lycopersici) [1]
CO/C=C(/C(=O)OC)c1ccccc1Oc1cc(OS(=O)(=O)c2ccccc2C#N)ncn1 [381 of Table I] | 0 (0=60-100% of disease on untreated plants) | 0 (0=60-100% of disease on untreated plants) | 2 (2=6-25% of disease on untreated plants) | 0 (0=60-100% of disease on untreated plants) | 2 (2=6-25% of disease on untreated plants) | 0 (0=60-100% of disease on untreated plants)
CO/C=C(/C(=O)OC)c1ccccc1Oc1cc(OCCc2ccccc2F)ncn1 [366 of Table I] | 4 (4=no disease) | 4 (4=no disease) | 4 (4=no disease) | 4 (4=no disease) | 4 (4=no disease) | 4 (4=no disease)
CO/C=C(/C(=O)OC)c1ccccc1Oc1cc(OCCc2c(F)cccc2Cl)ncn1 [372 of Table I] | 4 (4=no disease) | 4 (4=no disease) | 4 (4=no disease) | 4 (4=no disease) | 4 (4=no disease) | 4 (4=no disease)
CO/C=C(/C(=O)OC)c1ccccc1Oc1cc(Sc2ccccc2)ncn1 [1 of Table I] | 4 (4=no disease) | 4 (4=no disease) | 4 (4=no disease) | 4 (4=no disease) | 4 (4=no disease) | 4 (4=no disease)
CO/C=C(/C(=O)OC)c1ccccc1Oc1cc(OCCc2ccccc2C)ncn1 [364 of Table I] | 4 (4=no disease) | 4 (4=no disease) | 4 (4=no disease) | 4 (4=no disease) | 4 (4=no disease) | 4 (4=no disease)
CO/C=C(/C(=O)OC)c1ccccc1Oc1cc(Nc2ccccc2OC)ncn1 [380 of Table I] | 4 (4=no disease) | 4 (4=no disease) | 4 (4=no disease) | 4 (4=no disease) | 4 (4=no disease) | 3 (3=trace-5% of disease on untreated plants)
CO/C=C(/C(=O)OC)c1ccccc1Oc1cc(OCCCc2ccccc2)ncn1 [360 of Table I] | 4 (4=no disease) | 4 (4=no disease) | 4 (4=no disease) | 4 (4=no disease) | 4 (4=no disease) | 4 (4=no disease)
CO/C=C(/C(=O)OC)c1ccccc1Oc1cc(OCCc2ccccc2C#N)ncn1 [357 of Table I] | 4 (4=no disease) | 4 (4=no disease) | 4 (4=no disease) | 4 (4=no disease) | 4 (4=no disease) | 4 (4=no disease)
CO/C=C(/C(=O)OC)c1ccccc1Oc1cc(OCc2c(F)cccc2F)ncn1 [374 of Table I] | 4 (4=no disease) | 4 (4=no disease) | 4 (4=no disease) | 4 (4=no disease) | 4 (4=no disease) | 4 (4=no disease)
CO/C=C(/C(=O)OC)c1ccccc1Oc1cc(OCCOc2c(F)cccc2F)ncn1 [382 of Table I] | 4 (4=no disease) | 4 (4=no disease) | 4 (4=no disease) | 4 (4=no disease) | 4 (4=no disease) | 4 (4=no disease)
CO/C=C(/C(=O)OC)c1ccccc1Oc1cc(S(=O)(=O)c2ccccc2)ncn1 [3 of Table I] | 4 (4=no disease) | 0 (0=60-100% of disease on untreated plants) | 3 (3=trace-5% of disease on untreated plants) | 4 (4=no disease) | 2 (2=6-25% of disease on untreated plants) | 0 (0=60-100% of disease on untreated plants)
CO/C=C(/C(=O)OC)c1ccccc1Oc1cc(OC(C#N)c2ccccc2)ncn1 (stereo not drawn) [369 of Table I] | 4 (4=no disease) | 4 (4=no disease) | 4 (4=no disease) | 4 (4=no disease) | 4 (4=no disease) | 3 (3=trace-5% of disease on untreated plants)
CO/C=C(/C(=O)OC)c1ccccc1Oc1cc(OCCCc2ccccc2[N+](=O)[O-])ncn1 [361 of Table I] | 4 (4=no disease) | 4 (4=no disease) | 4 (4=no disease) | 4 (4=no disease) | 4 (4=no disease) | 4 (4=no disease)
CO/C=C(/C(=O)OC)c1ccccc1Oc1cc(OCCc2ccccc2Cl)ncn1 [368 of Table I] | 4 (4=no disease) | 4 (4=no disease) | 4 (4=no disease) | 4 (4=no disease) | 3 (3=trace-5% of disease on untreated plants) | 3 (3=trace-5% of disease on untreated plants)
CO/C=C(/C(=O)OC)c1ccccc1Oc1cc(OCCc2ccccc2[N+](=O)[O-])ncn1 [358 of Table I] | 4 (4=no disease) | 4 (4=no disease) | 4 (4=no disease) | 4 (4=no disease) | 4 (4=no disease) | 4 (4=no disease)
CO/C=C(/C(=O)OC)c1ccccc1Oc1cc(OCCc2c(Cl)cccc2Cl)ncn1 [373 of Table I] | 4 (4=no disease) | 4 (4=no disease) | 4 (4=no disease) | 4 (4=no disease) | 4 (4=no disease) | 3 (3=trace-5% of disease on untreated plants)
CO/C=C(/C(=O)OC)c1ccccc1Oc1cc(OCCc2c(F)cccc2F)ncn1 [370 of Table I] | 4 (4=no disease) | 4 (4=no disease) | 4 (4=no disease) | 4 (4=no disease) | 4 (4=no disease) | 4 (4=no disease)
CO/C=C(/C(=O)OC)c1ccccc1Oc1cc(OC(c2ccccc2)C(F)(F)F)ncn1 (stereo not drawn) [371 of Table I] | 4 (4=no disease) | 4 (4=no disease) | 4 (4=no disease) | 4 (4=no disease) | 4 (4=no disease) | 0 (0=60-100% of disease on untreated plants)
